Results: patent US20030018166A1 (priority 2000, published 2003)
Entries after “also recorded” stand apart in the source; their conditions may differ. Like-named read-outs stand apart in the source and are kept apart here.

How the values were obtained:
[1] = molecular target: recombinant Icl (isocitrate lyase) (Mycobacterium tuberculosis, UniProt P9WKK7); assay: biochemical; type: biochemical, M. tuberculosis (CSU93); settings: for Ki: read-out: inhibition constants; for inhibit the activity to approximately: 5 mM inhibitor concentration
[2] = tested on: wild type M. smegmatis mc^2155; type: cell-based; settings: discs 30 mM and 60 mM
[3] = tested on: O=C(O)CC(C(=O)O)C(O)C(=O)O; assay: purified protein, by the assay type

recombinant Icl (isocitrate lyase), sequence (P9WKK7 whole entry): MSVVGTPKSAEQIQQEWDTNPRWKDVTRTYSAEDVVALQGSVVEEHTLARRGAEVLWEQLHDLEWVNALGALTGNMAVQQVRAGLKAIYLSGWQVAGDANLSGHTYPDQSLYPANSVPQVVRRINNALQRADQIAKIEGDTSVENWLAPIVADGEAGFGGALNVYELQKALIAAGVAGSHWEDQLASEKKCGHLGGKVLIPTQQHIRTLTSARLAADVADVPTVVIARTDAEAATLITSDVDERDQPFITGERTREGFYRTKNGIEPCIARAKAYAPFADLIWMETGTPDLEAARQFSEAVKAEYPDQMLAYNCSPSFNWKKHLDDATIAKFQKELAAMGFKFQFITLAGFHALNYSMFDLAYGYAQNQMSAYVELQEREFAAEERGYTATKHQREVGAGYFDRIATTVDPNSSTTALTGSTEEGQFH

O=C(O)[C@H](O)COP(=O)(O)O [3-Phosphoglycerate]
inhibitory effect on Icl activity [1]: no inhibitory effect

O=C(O)CC[N+](=O)[O-] [3-nitropropionate]
Ki [1]: 3 µM
effect on growth, inhibition zone around disc ([2]; grown on acetate): restricted to growth on acetate; also recorded: inhibitory
effect on growth, inhibition zone around disc ([2]; grown on glucose): not observed; also recorded: no effect

O=C(O)[C@H](O)[C@@H](O)[C@H](O)[C@H](O)COP(=O)(O)O [6-phosphogluconate]
inhibitory effect on Icl activity [1]: no inhibitory effect

C=C(CC(=O)O)C(=O)O [Itaconate]
Ki [1]: 120 µM

O=C(O)C(=O)O [Oxalate]
inhibit the activity to approximately [1]: approximately 50%

O=C(O)C(=O)CBr [bromopyruvate, 3-bromopyruvate]
Ki [1]: 120 µM
effect on growth, inhibition zone around disc ([2]; grown on glucose): no effect

O=C(COP(=O)(O)O)[C@@H](O)[C@H](O)[C@H](O)COP(=O)(O)O [fructose-1,6-bisphosphate]
inhibitory effect on Icl activity [1]: no inhibitory effect

C=C1CC(=O)OC1=O [itaconic anhydride]
Ki [1]: 190 µM

O=C(O)CC(O)C(=O)O (stereo not shown) [malate]
inhibit the activity to approximately [1]: approximately 50%

O=C(O)CC(=O)O [malonic acid]
inhibitory effect on Icl activity [1]: no inhibitory effect

O=C(O)CCC(=O)O [succinate]
inhibitory effect on the recombinant enzyme [1]: did not reveal any inhibitory effect

recombinant AceA (isocitrate lyase) (Mycobacterium tuberculosis CDC1551)
Km ([3]; other: Tricine-HCl buffer at pH 7.5, pH 7.5): 1300 µM

recombinant Icl (isocitrate lyase) (Mycobacterium tuberculosis H37Rv)
Km ([3]; other: Hanes-Woolf plot): 145 µM
